Reference: publication PMC9270327 (Communications Biology, 2022)
Where a SMILES comes first, the peptide text is derived from it. The star is where a group is joined. AMC = Cc1cc(=O)oc2cc(N*)ccc12; Boc = CC(C)(C)OC(=O)*

Key:
[1] = target: TMPRSS2 (Homo sapiens, UniProt O15393); experiment: Michaelis-Menten constant of the fluorogenic reference substrate; details: read-out: Michaelis-Menten constant KM for TMPRSS2
Description: The measurements were performed on a Tecan infinite® M1000 and the fluorescence intensity was measured by exciting the AMC fluorophore at 380 nm wavelength and recording emission at 460 nm wavelength. […] Fluorescence intensities and absorption were measured every 2 min for 2 h or as endpoint after 2 h.
Supplementary Figure 2 Michaelis-Menten constant (KM) of the fluorogenic reference substrate
The data points were plotted using the Michaelis -Menten
equation in GraphPad Prism prism version 8.4.2 (San Diego, California). Shown are the means ± SD of
n=1 experiment performed in triplicates.

[2] = target: T1, recombinant human thrombin (Homo sapiens, UniProt P00734); experiment: Enzyme inhibition assay with purified thrombin (Ki, dose-response); assay type: biochemical; details: for thrombin activity, Mean (Fig. 2c): normalized
T1 construct: purchased R&D Systems (Minneapolis, MN, USA)
Description: (§1) Recombinant human TMPRSS2 was purchased from Creative BioMart (New York, USA) or LSBio (Seattle, USA), factor Xa was obtained from Bio-Techne GmbH (Wiesbaden, Germany). Recombinant human thrombin and matriptase protein were purchased from R&D Systems (Minneapolis, MN, USA).

[3] = target: T2, recombinant human matriptase (Homo sapiens, UniProt Q9Y5Y6); experiment: Enzyme inhibition assay with purified matriptase (Ki, dose-response); assay type: biochemical; details: for matriptase activity, Mean (Fig. 2b): normalized, 0 nM = 100
T2 construct: purchased R&D Systems (Minneapolis, MN, USA)
T2 sequence (Q9Y5Y6 1-855): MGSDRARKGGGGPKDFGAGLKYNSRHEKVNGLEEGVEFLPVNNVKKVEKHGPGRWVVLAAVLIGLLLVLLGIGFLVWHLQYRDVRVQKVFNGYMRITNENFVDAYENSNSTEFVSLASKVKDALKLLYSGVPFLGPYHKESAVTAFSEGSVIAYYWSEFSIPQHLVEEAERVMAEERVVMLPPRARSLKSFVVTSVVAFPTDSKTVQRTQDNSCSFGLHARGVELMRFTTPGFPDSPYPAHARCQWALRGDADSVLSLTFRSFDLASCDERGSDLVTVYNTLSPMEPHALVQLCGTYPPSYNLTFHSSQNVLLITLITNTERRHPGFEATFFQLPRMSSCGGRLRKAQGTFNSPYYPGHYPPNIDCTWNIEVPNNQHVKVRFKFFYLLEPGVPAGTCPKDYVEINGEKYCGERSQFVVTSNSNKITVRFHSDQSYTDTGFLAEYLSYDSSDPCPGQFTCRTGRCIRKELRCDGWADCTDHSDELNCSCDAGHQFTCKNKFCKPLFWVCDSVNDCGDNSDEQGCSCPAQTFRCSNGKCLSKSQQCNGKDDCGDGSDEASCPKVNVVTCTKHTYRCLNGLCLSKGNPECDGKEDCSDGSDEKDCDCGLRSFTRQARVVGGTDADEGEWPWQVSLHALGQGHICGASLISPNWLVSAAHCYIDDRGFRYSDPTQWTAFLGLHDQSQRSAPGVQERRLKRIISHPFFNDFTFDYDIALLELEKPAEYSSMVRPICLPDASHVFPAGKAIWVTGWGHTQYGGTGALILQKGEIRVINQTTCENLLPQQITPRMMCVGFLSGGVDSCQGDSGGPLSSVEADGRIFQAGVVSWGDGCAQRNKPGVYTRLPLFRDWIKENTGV

[4] = target: T3, factor Xa (Homo sapiens, UniProt P00742); experiment: Enzyme inhibition assay with purified factor Xa (Ki, dose-response); assay type: biochemical; details: for factor Xa activity, Mean (Fig. 2d): normalized, 0 nM = 100
T3 construct: purchased Bio-Techne GmbH (Wiesbaden, Germany)
T3 sequence (P00742 235-488 limits assumed): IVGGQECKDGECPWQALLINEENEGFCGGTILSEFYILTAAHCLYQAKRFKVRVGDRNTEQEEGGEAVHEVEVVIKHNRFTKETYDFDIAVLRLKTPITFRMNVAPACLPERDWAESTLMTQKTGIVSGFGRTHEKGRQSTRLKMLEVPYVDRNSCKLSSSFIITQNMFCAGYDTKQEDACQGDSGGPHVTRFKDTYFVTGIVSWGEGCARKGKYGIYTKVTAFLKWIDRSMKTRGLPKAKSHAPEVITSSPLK
T3 sequence (P00742 41-179 partner limits assumed): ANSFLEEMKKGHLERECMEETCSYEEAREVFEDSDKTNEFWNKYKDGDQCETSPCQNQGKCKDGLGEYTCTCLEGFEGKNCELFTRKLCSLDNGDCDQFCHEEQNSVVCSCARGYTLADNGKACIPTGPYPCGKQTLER
Description: as §1

[5] = iv; cited from earlier work
[6] = 30 min preincubation, substrate D-Phe-Homopro-Arg-pNA
[7] = 30 min preincubation, substrate Boc-Gln-Ala-Arg-AMC
[8] = 30 min preincubation, substrate Bz-Ile-Glu-Gly-Arg-pNA

Chain of TMPRSS2 (O15393 whole entry): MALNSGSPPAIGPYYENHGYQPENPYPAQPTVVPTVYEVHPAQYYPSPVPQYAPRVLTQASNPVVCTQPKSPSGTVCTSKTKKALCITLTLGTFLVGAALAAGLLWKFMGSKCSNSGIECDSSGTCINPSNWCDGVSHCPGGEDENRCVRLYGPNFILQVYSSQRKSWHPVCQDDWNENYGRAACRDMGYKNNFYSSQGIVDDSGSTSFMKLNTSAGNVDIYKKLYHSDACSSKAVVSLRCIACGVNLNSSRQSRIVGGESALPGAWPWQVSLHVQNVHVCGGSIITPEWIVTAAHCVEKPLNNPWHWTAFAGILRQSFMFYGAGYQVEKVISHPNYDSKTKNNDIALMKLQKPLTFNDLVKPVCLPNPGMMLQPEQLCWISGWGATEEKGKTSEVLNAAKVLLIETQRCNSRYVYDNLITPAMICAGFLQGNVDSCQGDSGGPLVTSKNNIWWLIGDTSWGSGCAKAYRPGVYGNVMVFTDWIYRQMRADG

SMILES: Cc1cc(=O)oc2cc(NC(=O)[C@H](CCCN=C(N)N)NC(=O)[C@H](C)NC(=O)[C@H](CCC(N)=O)NC(=O)OC(C)(C)C)ccc12 [Boc-Gln-Ala-Arg-AMC] (Boc-Gln-Ala-Arg-{AMC})
- Km [1]: 77 µM

SMILES: CC(=O)N[C@H](CCCNC(=N)N)C(=O)N[C@@H](CC1CCC1)C(=O)N[C@H](CO)CCCNC(=N)N [Cpd. 7 alcohol]
- Ki Thrombin [2, 6]: n.i.
- thrombin activity, Mean (control = 100), S6b ([2]; inhibitor 0.2 nM): 90.7019
- thrombin activity, Mean (control = 100), S6b ([2]; inhibitor 2 nM): 92.977
- thrombin activity, Mean (control = 100), S6b ([2]; inhibitor 20 nM): 91.1965
- thrombin activity, Mean (control = 100), S6b ([2]; inhibitor 200 nM): 95.4993
- thrombin activity, Mean (control = 100), S6b ([2]; inhibitor 10000 nM): 93.8672
- thrombin activity, Mean (control = 100), S6b ([2]; inhibitor 100000 nM): 91.2954
- Ki Matriptase [3, 7]: n.i.
- matriptase activity, Mean (control = 100), S6a ([3]; inhibitor 10 nM): 90.4903
- matriptase activity, Mean (control = 100), S6a ([3]; inhibitor 100 nM): 101.634
- matriptase activity, Mean (control = 100), S6a ([3]; inhibitor 1000 nM): 101.337
- matriptase activity, Mean (control = 100), S6a ([3]; inhibitor 50000 nM): 91.3819
- matriptase activity, Mean (control = 100), S6a ([3]; inhibitor 500000 nM): 44.4279
- Ki Factor Xa [4, 8]: n.i.
- factor Xa activity, Mean (control = 100), S6c ([4]; inhibitor 0.2 nM): 93.6065
- factor Xa activity, Mean (control = 100), S6c ([4]; inhibitor 2 nM): 101.454
- factor Xa activity, Mean (control = 100), S6c ([4]; inhibitor 20 nM): 95.9299
- factor Xa activity, Mean (control = 100), S6c ([4]; inhibitor 200 nM): 88.9574
- factor Xa activity, Mean (control = 100), S6c ([4]; inhibitor 10000 nM): 78.1999
- factor Xa activity, Mean (control = 100), S6c ([4]; inhibitor 100000 nM): 120.06

SMILES: CC(=O)NC(CCCNC(=N)N)C(=O)NC(CC1CCC1)C(=O)NC(CCCNC(=N)N)C(=O)c1nccs1 (stereo not shown) [Cpd. 7 ketothiazole]
- Ki Thrombin [2, 6]: n.i.
- thrombin activity, Mean (control = 100), S6b ([2]; inhibitor 0.02 nM): 96.7111
- thrombin activity, Mean (control = 100), S6b ([2]; inhibitor 0.04 nM): 101.49
- thrombin activity, Mean (control = 100), S6b ([2]; inhibitor 0.2 nM): 101.233
- thrombin activity, Mean (control = 100), S6b ([2]; inhibitor 2 nM): 107.554
- thrombin activity, Mean (control = 100), S6b ([2]; inhibitor 20 nM): 101.388
- thrombin activity, Mean (control = 100), S6b ([2]; inhibitor 200 nM): 101.233
- thrombin activity, Mean (control = 100), S6b ([2]; inhibitor 10000 nM): 98.2014
- thrombin activity, Mean (control = 100), S6b ([2]; inhibitor 100000 nM): 83.6589
- Ki [3, 7]: 141 nM
- matriptase activity, Mean (control = 100), S6a ([3]; inhibitor 0.1 nM): 103.606
- matriptase activity, Mean (control = 100), S6a ([3]; inhibitor 0.2 nM): 101.185
- matriptase activity, Mean (control = 100), S6a ([3]; inhibitor 1 nM): 109.016
- matriptase activity, Mean (control = 100), S6a ([3]; inhibitor 10 nM): 101.829
- matriptase activity, Mean (control = 100), S6a ([3]; inhibitor 100 nM): 75.1932
- matriptase activity, Mean (control = 100), S6a ([3]; inhibitor 1000 nM): 21.355
- matriptase activity, Mean (control = 100), S6a ([3]; inhibitor 50000 nM): 0.4637
- matriptase activity, Mean (control = 100), S6a ([3]; inhibitor 500000 nM): -0.1803
- Ki [4, 8]: 98.7 nM
- factor Xa activity, Mean (control = 100), S6c ([4]; inhibitor 0.02 nM): 95.3485
- factor Xa activity, Mean (control = 100), S6c ([4]; inhibitor 0.04 nM): 90.4387
- factor Xa activity, Mean (control = 100), S6c ([4]; inhibitor 0.2 nM): 87.8566
- factor Xa activity, Mean (control = 100), S6c ([4]; inhibitor 2 nM): 87.8545
- factor Xa activity, Mean (control = 100), S6c ([4]; inhibitor 20 nM): 82.4299
- factor Xa activity, Mean (control = 100), S6c ([4]; inhibitor 200 nM): 52.1976
- factor Xa activity, Mean (control = 100), S6c ([4]; inhibitor 10000 nM): 2.584
- factor Xa activity, Mean (control = 100), S6c ([4]; inhibitor 100000 nM): 3.101

SMILES: NC(N)=Nc1ccc(C(=O)Oc2ccc(CC(=O)O)cc2)cc1 [FOY-251, reference compound]
- thrombin activity, Mean (Fig. 2c) ([2]; 0.01 nM): 101.844
- thrombin activity, Mean (Fig. 2c) ([2]; 0.02 nM, 0 nM = 100): 101.898
- thrombin activity, Mean (Fig. 2c) ([2]; 0.04 nM, 0 nM = 100): 101.898
- thrombin activity, Mean (Fig. 2c) ([2]; 0.2 nM, 0 nM = 100): 101.356
- thrombin activity, Mean (Fig. 2c) ([2]; 2 nM, 0 nM = 100): 99.0781
- thrombin activity, Mean (Fig. 2c) ([2]; 20 nM, 0 nM = 100): 102.277
- thrombin activity, Mean (Fig. 2c) ([2]; 10000 nM, 0 nM = 100): 93.0588
- thrombin activity, Mean (Fig. 2c) ([2]; 100000 nM, 0 nM = 100): 44.1974
- Ki [2, 6]: > 50000 nM
- matriptase activity, Mean (Fig. 2b) ([3]; 0.05 nM): 110.25
- matriptase activity, Mean (Fig. 2b) ([3]; 0.5 nM): 111.62
- matriptase activity, Mean (Fig. 2b) ([3]; 5 nM): 106.849
- matriptase activity, Mean (Fig. 2b) ([3]; 50 nM): 97.213
- matriptase activity, Mean (Fig. 2b) ([3]; 500 nM): 35.5692
- matriptase activity, Mean (Fig. 2b) ([3]; 5000 nM): 1.606
- matriptase activity, Mean (Fig. 2b) ([3]; 50000 nM): 0.2362
- matriptase activity, Mean (Fig. 2b) ([3]; 500000 nM): 0.1417
- Ki [3, 7]: 173 nM
- factor Xa activity, Mean (Fig. 2d) ([4]; 0.02 nM): 91.2533
- factor Xa activity, Mean (Fig. 2d) ([4]; 0.04 nM): 91.3991
- factor Xa activity, Mean (Fig. 2d) ([4]; 0.2 nM): 72.8853
- factor Xa activity, Mean (Fig. 2d) ([4]; 2 nM): 86.5885
- factor Xa activity, Mean (Fig. 2d) ([4]; 20 nM): 82.2151
- factor Xa activity, Mean (Fig. 2d) ([4]; 200 nM): 72.5938
- factor Xa activity, Mean (Fig. 2d) ([4]; 10000 nM): 34.986
- factor Xa activity, Mean (Fig. 2d) ([4]; 100000 nM): 16.3265
- Ki [4, 8]: 697 nM
- in vivo half-life [5]: 1 to 1.67 h
